Data taken from ChEMBL document CHEMBL4325829, “Design and Synthesis of Tubulin and Histone Deacetylase Inhibitor Based on iso-Combretastatin A-4” (J Med Chem, 2018).
In brackets after ≈: the same amount, converted by molar mass. Values belong to the molecule of their own block, whether it stands above or below them. Activity calls are given as the source filed them. No cut-off for these calls is given here.

Experiments:
[1] = Induction of apoptosis in human BL2 cells assessed as early apoptotic cells at 10 nM after 48 hrs by annexin V-FITC/propidium iodide double staining-based flow cytometry (reference value: 8.2%); format: functional
[2] = Induction of apoptosis in human BL2 cells assessed as late apoptotic cells at 10 nM after 48 hrs by annexin V-FITC/propidium iodide double staining-based flow cytometry (reference value: 2.1%); format: functional
[3] = test system: HCT-116; test: Antiproliferative activity against human HCT116 cells after 72 hrs by MTS assay; format: functional; settings: Homo sapiens, HCT-116, 72 h
[4] = organism: Ovis aries; test: Inhibition of sheep brain tubulin polymerization assessed as reduction in rate of microtubule assembly at 200 uM by DAPI-fluorescence based assay
[5] = Inhibition of sheep brain tubulin polymerization assessed as reduction in rate of microtubule assembly by DAPI-fluorescence based assay; design: species or system Ovis aries
[6] = molecular target: T1, Histone deacetylase 8 (Homo sapiens, UniProt Q9BY41); test: Inhibition of human recombinant HDAC8 after 30 mins using fluorogenic substrate by fluorimetric assay; settings: read-out: IC50
T1 sequence (Q9BY41 whole entry): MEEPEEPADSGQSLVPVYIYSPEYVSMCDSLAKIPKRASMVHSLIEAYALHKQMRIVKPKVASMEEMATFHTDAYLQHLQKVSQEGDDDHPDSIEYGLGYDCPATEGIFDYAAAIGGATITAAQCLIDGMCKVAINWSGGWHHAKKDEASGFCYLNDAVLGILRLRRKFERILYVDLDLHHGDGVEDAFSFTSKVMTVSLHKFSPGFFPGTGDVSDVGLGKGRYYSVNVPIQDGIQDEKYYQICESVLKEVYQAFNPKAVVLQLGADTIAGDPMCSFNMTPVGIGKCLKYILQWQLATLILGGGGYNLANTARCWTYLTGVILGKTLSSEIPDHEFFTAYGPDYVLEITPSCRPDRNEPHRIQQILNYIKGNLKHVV

[7] = molecular target: T2, Histone deacetylase 11 (Homo sapiens, UniProt Q96DB2); test: Inhibition of human recombinant HDAC11 after 30 mins using fluorogenic substrate by fluorimetric assay; settings: read-out: IC50
T2 sequence (Q96DB2 whole entry): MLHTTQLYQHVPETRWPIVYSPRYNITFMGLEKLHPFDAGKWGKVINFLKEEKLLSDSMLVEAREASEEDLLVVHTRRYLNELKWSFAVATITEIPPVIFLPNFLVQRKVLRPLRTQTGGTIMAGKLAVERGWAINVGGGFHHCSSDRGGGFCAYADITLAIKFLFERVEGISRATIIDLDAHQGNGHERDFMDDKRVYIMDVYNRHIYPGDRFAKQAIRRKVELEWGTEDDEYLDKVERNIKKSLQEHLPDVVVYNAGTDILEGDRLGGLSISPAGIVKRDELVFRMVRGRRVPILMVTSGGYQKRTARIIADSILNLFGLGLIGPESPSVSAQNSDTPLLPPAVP

[8] = test system: A549; test: Antiproliferative activity against human A549 cells after 72 hrs by MTS assay; format: functional; settings: Homo sapiens, A549, 72 h
[9] = test system: K562; test: Antiproliferative activity against human K562 cells after 72 hrs by MTS assay; format: functional; settings: Homo sapiens, K562, 72 h
[10] = test system: K-562R; test: Antiproliferative activity against human K562R cells after 72 hrs by MTS assay; format: functional; settings: Homo sapiens, K-562R, 72 h
[11] = test system: PC-3; test: Antiproliferative activity against human PC3 cells after 72 hrs by MTS assay; format: functional; settings: Homo sapiens, PC-3, 72 h
[12] = test system: U-87 MG; test: Antiproliferative activity against human U87 cells after 72 hrs by MTS assay; format: functional, U-87MG ATCC; settings: Homo sapiens, U-87 MG, 72 h
[13] = test system: MCF7; test: Antiproliferative activity against human MCF7 cells after 72 hrs by MTS assay; format: functional; settings: Homo sapiens, MCF7, 72 h
[14] = test system: MIA PaCa-2; test: Antiproliferative activity against human MIAPaCa2 cells after 72 hrs by MTS assay; format: functional; settings: Homo sapiens, MIA PaCa-2, 72 h
[15] = test system: BXPC-3; test: Antiproliferative activity against human BxPC3 cells after 72 hrs by MTS assay; format: functional; settings: Homo sapiens, BXPC-3, 72 h
[16] = test system: HT-29; test: Antiproliferative activity against human HT-29 cells after 72 hrs by MTS assay; format: functional; settings: Homo sapiens, HT-29, 72 h
[17] = molecular target: T3, Histone deacetylase (Homo sapiens) (UniProt Q13547+O15379+Q9UBN7+Q92769+Q9UQL6+Q8WUI4+Q9BY41+Q96DB2+P56524+Q9UKV0+Q969S8); test: Inhibition of HDAC in human HT-29 cells assessed as phosphorylated gamma-H2AX levels at 302 nM after 3 days by Western blot analysis relative to control; format: cell-based
[18] = molecular target: T3, Histone deacetylase (Homo sapiens); test: Inhibition of HDAC in human HT-29 cells assessed as phosphorylated gamma-H2AX levels at 605 nM after 3 days by Western blot analysis relative to control; format: cell-based
[19] = molecular target: T3, Histone deacetylase (Homo sapiens); test: Inhibition of HDAC in human HT-29 cells assessed as gamma-H2AX phosphorylation after 3 days by Western blot analysis; format: cell-based
[20] = molecular target: T4, Histone deacetylase 8 (Homo sapiens) (UniProt Q9BY41); test: Inhibition of HDAC8 in human HT-29 cells assessed as acetylated SMC3 levels at 25 uM after 6 hrs by Western blot analysis relative to control; format: cell-based
T4 sequence (whole entry): T1 sequence (Q9BY41 whole entry)

[21] = molecular target: T4, Histone deacetylase 8 (Homo sapiens); test: Inhibition of HDAC8 in human HT-29 cells assessed as acetylated SMC3 levels at 25 uM after 24 hrs by Western blot analysis relative to control; format: cell-based
[22] = molecular target: T5, Protein deacetylase HDAC6 (Homo sapiens) (UniProt Q9UBN7); test: Inhibition of HDAC6 in human HT-29 cells assessed as acetylated alpha-tubulin levels at 25 uM after 6 hrs by Western blot analysis relative to control; format: cell-based
T5 sequence (whole entry): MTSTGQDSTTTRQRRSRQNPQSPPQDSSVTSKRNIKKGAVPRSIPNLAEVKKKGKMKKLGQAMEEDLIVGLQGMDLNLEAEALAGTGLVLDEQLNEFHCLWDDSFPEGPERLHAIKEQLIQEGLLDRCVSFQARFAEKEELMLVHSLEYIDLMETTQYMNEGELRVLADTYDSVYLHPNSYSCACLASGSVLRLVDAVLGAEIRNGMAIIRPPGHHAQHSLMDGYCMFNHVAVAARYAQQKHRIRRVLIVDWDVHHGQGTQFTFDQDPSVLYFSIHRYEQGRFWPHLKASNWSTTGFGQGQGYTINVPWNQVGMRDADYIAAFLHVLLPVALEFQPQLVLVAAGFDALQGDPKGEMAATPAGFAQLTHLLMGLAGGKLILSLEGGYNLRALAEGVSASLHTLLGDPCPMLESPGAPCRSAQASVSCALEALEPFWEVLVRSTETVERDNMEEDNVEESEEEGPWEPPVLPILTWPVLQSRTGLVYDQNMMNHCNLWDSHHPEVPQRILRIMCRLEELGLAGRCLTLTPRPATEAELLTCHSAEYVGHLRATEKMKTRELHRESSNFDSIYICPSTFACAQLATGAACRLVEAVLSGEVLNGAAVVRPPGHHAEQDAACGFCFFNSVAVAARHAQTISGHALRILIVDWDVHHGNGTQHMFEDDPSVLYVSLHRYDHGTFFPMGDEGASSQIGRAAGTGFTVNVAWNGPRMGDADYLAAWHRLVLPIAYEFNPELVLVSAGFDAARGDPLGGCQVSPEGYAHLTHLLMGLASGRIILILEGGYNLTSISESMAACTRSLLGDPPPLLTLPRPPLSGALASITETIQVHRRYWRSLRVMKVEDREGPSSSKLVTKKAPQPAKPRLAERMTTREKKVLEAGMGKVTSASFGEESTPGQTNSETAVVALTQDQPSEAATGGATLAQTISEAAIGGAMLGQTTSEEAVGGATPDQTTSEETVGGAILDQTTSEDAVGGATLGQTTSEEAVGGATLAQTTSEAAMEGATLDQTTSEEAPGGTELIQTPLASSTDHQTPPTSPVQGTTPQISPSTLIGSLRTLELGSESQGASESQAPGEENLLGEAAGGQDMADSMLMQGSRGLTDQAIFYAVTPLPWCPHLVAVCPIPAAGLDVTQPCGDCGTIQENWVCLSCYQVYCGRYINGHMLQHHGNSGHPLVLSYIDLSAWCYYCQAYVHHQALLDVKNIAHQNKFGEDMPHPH

[23] = molecular target: T5, Protein deacetylase HDAC6 (Homo sapiens); test: Inhibition of HDAC6 in human HT-29 cells assessed as acetylated alpha-tubulin levels at 25 uM after 24 hrs by Western blot analysis relative to control; format: cell-based
[24] = Aqueous solubility of the compound; format: physicochemical; settings: water
[25] = Lipophilicity, log P of the compound; format: physicochemical; settings: octanol/water; read-out: logP
[26] = molecular target: T6, Protein deacetylase HDAC6 (Homo sapiens, UniProt Q9UBN7)
T6 sequence (Q9UBN7 whole entry): T5 sequence (whole entry)
Description: Inhibition of human recombinant HDAC6 after 30 mins using fluorogenic substrate by fluorimetric assay

SMILES: O=C(CCCCCCC(=O)Nc1ccccc1)NO [VORINOSTAT]
Activity [1]: 6.7% | Activity [2]: 1.8%

GI50 [3]: 3 µM | inhibition [4]: inactive
SMILES: C=C(c1ccc(OC)c(OCCCCCCC(=O)OCC)c1)c1cc(OC)c(OC)c(OC)c1

GI50 [3]: 0.008 µM | IC50 [5]: 2.1 µM | IC50 [6]: 0.06 µM | IC50 [7]: 8 µM | GI50 [8]: 0.022 µM | GI50 [9]: 0.02 µM | GI50 [10]: 0.08 µM | GI50 [11]: 0.028 µM | GI50 [12]: 0.011 µM | GI50 [13]: 0.017 µM | GI50 [14]: 0.018 µM | GI50 [15]: 0.025 µM | GI50 [16]: 0.0636 µM | fold change (FC) [17]: 1.3 | fold change (FC) [18]: 2.9 | inhibition [19]: Dose-dependent effect | fold change (FC) [20]: 1.6 | fold change (FC) [21]: 2.7 | fold change (FC) [22]: 0.3 | fold change (FC) [23]: 0.9 | solubility [24]: 88.3 µg/mL (≈ 229 µM) | logP [25]: 2.13 | IC50 [26]: 5 µM
SMILES: C=C(c1cc(OC)c(OC)c(OC)c1)c1ccc(OC)cc1/C=C/C(=O)NO

GI50 [3]: 0.393 µM | IC50 [5]: 22 µM
SMILES: C=C(c1cc(OC)c(OC)c(OC)c1)c1ccc2c(ccn2CCC(=O)NO)c1

GI50 [3]: 0.022 µM | IC50 [5]: 2.4 µM
SMILES: C=C(c1ccc(OC)c(OCC(=O)NO)c1)c1cc(OC)c(OC)c(OC)c1

GI50 [3]: 0.34 µM | inhibition [4]: inactive
SMILES: C=C(c1cc(OC)c(OC)c(OC)c1)c1ccc(OC)c(C(=O)Nc2ccccc2N)c1

GI50 [3]: 0.008 µM | IC50 [5]: 1.7 µM
SMILES: C=C(c1ccc(OC)c(C#CCCC(=O)NO)c1)c1cc(OC)c(OC)c(OC)c1

GI50 [3]: 2.5 µM | inhibition [4]: inactive
SMILES: C=C(c1ccc(OC)c(OCCCCCCC(=O)NO)c1)c1cc(OC)c(OC)c(OC)c1

GI50 [3]: 1 µM | inhibition [4]: inactive
SMILES: C=C(c1ccc(OC)c(C#CCCC(=O)OCC)c1)c1cc(OC)c(OC)c(OC)c1

GI50 [3]: 1 µM | inhibition [4]: inactive
SMILES: C=C(c1ccc(OC)c(OCCCC(=O)OCC)c1)c1cc(OC)c(OC)c(OC)c1

GI50 [3]: 2.64 µM | GI50 [8]: > 20 µM | GI50 [9]: 2.01 µM | GI50 [10]: 2.2 µM | GI50 [11]: 2.66 µM | GI50 [12]: > 15 µM | GI50 [13]: 2.97 µM | GI50 [14]: > 20 µM | GI50 [15]: > 20 µM | GI50 [16]: > 10 µM | fold change (FC) [20]: 3.1 | fold change (FC) [21]: 4.8 | fold change (FC) [22]: 0.5 | fold change (FC) [23]: 1.7
SMILES: COc1ccc(Cn2ccc3ccc(C(=O)NO)cc32)cc1

GI50 [3]: 3 µM | inhibition [4]: inactive
SMILES: C=C(c1ccc(OC)c(C#CCCCC(=O)OCC)c1)c1cc(OC)c(OC)c(OC)c1
